Assay results published in patent US9504251B2, “Pesticidal compositions and related methods” (Dow AgroSciences LLC, priority 2014, dated 2016).
Like-named read-outs stand apart in the source and are kept apart here.

Experiments:
[1] = system: Sweetpotato Whitefly-crawler (Bemisia tabaci) (WF) (BEMITA); assay: Sweetpotato whitefly-crawler (WF) foliar spray assay on cotton plants; type: in vivo; details: 216 h, 200 ppm foliar spray on cotton plants, graded after 9 days, read-out: WF % Control (or Mortality) rating
Experimental: Foliar spray assay for WF was prepared as follows: Cotton plants (Gossypium hirsutum) grown in 3-inch pots, with 1 small (4-5 cm) true leaf, were used as test substrate. The plants were infested with 200-400 whitefly eggs 4-5 days prior to chemical application. Four pots with individual plants were used for each treatment. Tested compounds (2 mg) were dissolved in 1 mL of acetone solvent, forming stock solutions of 2000 ppm tested compound.
The stock solutions were diluted ten times with 0.025% TWEEN® 20 surfactant in H2O (diluents) to obtain the solution at 200 ppm tested compound. A hand-held aspirator-type sprayer was used for spraying the solution to both sides of cotton leaves until runoff. The control plants (solvent check) were sprayed with the diluent only containing 10% by volume of acetone solvent. Treated plants were held in a holding room for 9 days at approximately 25° C. and ambient relative humidity (RH) prior to grading. Evaluation was conducted by counting the number of live 3-4 nymph stage per plant under a microscope. Percent control was measured by using Abbott's correction formula (W. S. Abbott, “A Method of Computing the Effectiveness of an Insecticide,” J. Econ. Entomol. 18 (1925), pp. 265-267) as follows. Corrected % Control=100*(X−Y)/X
X=No. of live nymphs on solvent check plants and
Y=No. of live nymphs on treated plants.
(§1) The comparative compounds were tested for insecticidal activities against GPA and WF pests using the same test protocols described above for the disclosed compounds.

[2] = system: Green Peach Aphid (Myzus persicae) (GPA) (MYZUPE); assay: Green peach aphid (GPA) foliar spray bioassay on cabbage seedlings; type: in vivo; details: 72 h, 200 ppm foliar spray on cabbage seedlings, graded after three days, read-out: GPA % Control (or Mortality) rating
Experimental: Bioassay for GPA was prepared as follows: Cabbage seedlings grown in 3-inch pots, with 2-3 small (3-5 cm) true leaves, were used as test substrate. The seedlings were infested with 20-50 GPA (adult and nymph stages) one day prior to chemical application. Four pots with individual seedlings were used for each treatment. The tested compounds (2 mg) were dissolved in 2 mL of acetone/methanol (1:1) solvent to form stock solutions of 1000 ppm tested compound. The stock solutions were diluted five times with an aqueous solution containing 0.025% TWEEN® 20 surfactant, which is polyoxyethylene (20) sorbitan monolaurate, to obtain the solution at 200 ppm tested compound. A hand-held aspirator-type sprayer was used for spraying the solution to both sides of cabbage leaves until runoff. The control plants (solvent check) were sprayed with the diluent only containing 20% by volume of acetone/methanol (1:1) solvent. Treated plants were held in a holding room for three days at approximately 25° C. and ambient relative humidity (RH) prior to grading. Evaluation was conducted by counting the number of live aphids per plant under a microscope. Percent control was measured by using Abbott's correction formula (W. S. Abbott, “A Method of Computing the Effectiveness of an Insecticide,” J. Econ. Entomol. 18 (1925), pp. 265-267) as follows. Corrected % Control=100*(X−Y)/X
X=No. of live aphids on solvent check plants and
Y=No. of live aphids on treated plants
as §1

[3] = Abbott-corrected % control, disclosed compounds (TABLE 2)
[4] = same protocol, comparative compounds (TABLE 3)

`O=C1c2cn(-c3cccnc3)nc2CCN1c1ncccn1` [Compound F34, 2-(3-Pyridyl)-5-pyrimidin-2-yl-6,7-dihydropyrazolo[4,3-c]pyridin-4-one] was tested, and the mortality at 200 ppm [1, 3] was 80 to 100% and the mortality at 200 ppm [2, 3] was 80 to 100%.
In the case of `CSCCN1CCc2nn(-c3cccnc3)cc2C1=O` [Compound F40, 5-(2-(methylthio)ethyl)-2-(pyridin-3-yl)-6,7-dihydro-2H-pyrazolo[4,3-c]pyridin-4(5H)-one], the mortality at 200 ppm [1, 3] is reported as 80 to 100% and the mortality at 200 ppm [2, 3] is reported as 80 to 100%.
`O=C1c2cn(-c3cccnc3)nc2CCN1Cc1ccc(F)cc1` [Compound F3, 5-(4-fluorobenzyl)-2-(pyridin-3-yl)-6,7-dihydro-2H-pyrazolo[4,3-c]pyridin-4(5H)-one] was tested, and the mortality at 200 ppm [1, 3] was 0 to 80%.
For `O=C1c2cn(-c3cccnc3)nc2CCN1c1ccc(C(F)(F)F)nc1` [Compound F33, 2-(3-Pyridyl)-5-[6-(trifluoromethyl)-3-pyridyl]-6,7-dihydropyrazolo[4,3-c]pyridin-4-one], the mortality at 200 ppm [1, 3] was 0 to 80% and the mortality at 200 ppm [2, 3] was 80 to 100%.
`O=C1c2cn(-c3cccnc3)nc2CCN1c1ccnc(C(F)(F)F)c1` [Compound F5, 2-(3-Pyridyl)-5-[2-(trifluoromethyl)-4-pyridyl]-6,7-dihydropyrazolo[4,3-c]pyridin-4-one] gave a mortality at 200 ppm [1, 3] of 0 to 80% and a mortality at 200 ppm [2, 3] of 80 to 100%.
With `CSCCC(=O)N1CCc2nn(-c3cccnc3)cc2C1=O` [Compound F12, 5-(3-(methylthio)propanoyl)-2-(pyridin-3-yl)-6,7-dihydro-2H-pyrazolo[4,3-c]pyridin-4(5H)-one] the mortality at 200 ppm [1, 3] was 0 to 80% and the mortality at 200 ppm [2, 3] was 80 to 100%.
Work on `O=C1c2cn(-c3cccnc3)nc2CCN1Cc1ccccc1C(F)(F)F` [Compound F32, 2-(3-Pyridyl)-5-[[2-(trifluoromethyl)phenyl]methyl]-6,7-dihydropyrazolo[4,3-c]pyridin-4-one] yielded a mortality at 200 ppm [1, 3] of 80 to 100% and a mortality at 200 ppm [2, 3] of 0 to 80%.
`O=C1c2cn(-c3cccnc3)nc2CCN1c1ccc(C(F)(F)F)cc1` [Compound F13, 2-(3-Pyridyl)-5-[4-(trifluoromethyl)phenyl]-6,7-dihydropyrazolo[4,3-c]pyridin-4-one] showed a mortality at 200 ppm [1, 3] of 0 to 80% and a mortality at 200 ppm [2, 3] of 80 to 100%.
`O=C1c2cn(-c3cccnc3)nc2CCN1CC(=NOCc1ccccc1)c1ccc(C(F)(F)F)cc1` (single isomer, unassigned) [Compound P39, 5-(2-((benzyloxy)imino)-2-(4-(trifluoromethyl)phenyl)ethyl)-2-(pyridin-3-yl)-2,5,6,7-tetrahydro-4H-pyrazolo[4,3-c]pyridin-4-one] gave a mortality at 200 ppm [1, 3] of 0 to 80% and a mortality at 200 ppm [2, 3] of 0 to 80%.
`O=C1c2cn(-c3cccnc3)nc2CCN1c1cncc(C(F)(F)F)c1` [Compound F21, 2-(3-Pyridyl)-5-[5-(trifluoromethyl)-3-pyridyl]-6,7-dihydropyrazolo[4,3-c]pyridin-4-one] showed a mortality at 200 ppm [1, 3] of 80 to 100% and a mortality at 200 ppm [2, 3] of 80 to 100%.
With `CSCN1CCc2nn(-c3ccncc3)cc2C1=O` [Compound CE2, 5-(methylsulfanylmethyl)-2-(4-pyridyl)-6,7-dihydropyrazolo[4,3-c]pyridin-4-one, reference compound] the mortality at 200 ppm [1, 4] was 0 to 80% and the mortality at 200 ppm [2, 4] was 0 to 80%.
For `O=C1c2cn(-c3cccnc3)nc2CCN1c1ccc(F)cn1` [Compound F49, 5-(5-Fluoro-2-pyridyl)-2-(3-pyridyl)-6,7-dihydropyrazolo[4,3-c]pyridin-4-one], the mortality at 200 ppm [1, 3] was 0 to 80% and the mortality at 200 ppm [2, 3] was 80 to 100%.
`CC(=O)CN1CCc2nn(-c3cccnc3)cc2C1=O` [Compound CA4, 5-(2-oxopropyl)-2-(pyridin-3-yl)-2,5,6,7-tetrahydro-4H-pyrazolo[4,3-c]pyridin-4-one] was tested, and the mortality at 200 ppm [2, 3] was 80 to 100%.
Compound `O=C1c2cn(-c3cccnc3)nc2CCN1c1cccc(C(F)(F)F)n1` [Compound F46, 2-(3-Pyridyl)-5-[6-(trifluoromethyl)-2-pyridyl]-6,7-dihydropyrazolo[4,3-c]pyridin-4-one] has a mortality at 200 ppm [1, 3] of 0 to 80% and a mortality at 200 ppm [2, 3] of 80 to 100%.
In the case of `O=C1c2cn(-c3cccnc3)nc2CCN1CC(=NOCc1ccccc1)c1ccccc1` (racemic) [Compound P36, 5-(2-((benzyloxy)imino)-2-phenylethyl)-2-(pyridin-3-yl)-2,5,6,7-tetrahydro-4H-pyrazolo[4,3-c]pyridin-4-one], the mortality at 200 ppm [1, 3] is reported as 80 to 100% and the mortality at 200 ppm [2, 3] is reported as 0 to 80%.
With `O=C1c2cn(-c3cccnc3)nc2CCN1c1ncccc1C(F)(F)F` [Compound F10, 2-(3-Pyridyl)-5-[3-(trifluoromethyl)-2-pyridyl]-6,7-dihydropyrazolo[4,3-c]pyridin-4-one] the mortality at 200 ppm [1, 3] was 0 to 80% and the mortality at 200 ppm [2, 3] was 0 to 80%.
With `O=C1c2cn(-c3ccccn3)nc2CCN1c1ccc(C(F)(F)F)cn1` [CE6, 2-(2-Pyridyl)-5-[5-(trifluoromethyl)-2-pyridyl]-6,7-dihydropyrazolo[4,3-c]pyridin-4-one, reference compound] the mortality at 200 ppm [1, 4] was under 0% and the mortality at 200 ppm [2, 4] was 0 to 80%.
With `O=C1NCCc2nn(-c3cccnc3)cc21` [Compound F2, 2-(pyridin-3-yl)-6,7-dihydro-2H-pyrazolo[4,3-c]pyridin-4(5H)-one] the mortality at 200 ppm [1, 3] was 0 to 80% and the mortality at 200 ppm [2, 3] was 80 to 100%.
`O=C1c2cn(-c3cccnc3)nc2CCN1c1cccc(C(F)(F)F)c1` [Compound F4, 2-(3-Pyridyl)-5-[3-(trifluoromethyl)phenyl]-6,7-dihydropyrazolo[4,3-c]pyridin-4-one] was tested, and the mortality at 200 ppm [1, 3] was 0 to 80% and the mortality at 200 ppm [2, 3] was 80 to 100%.
Work on `O=C(CN1CCc2nn(-c3cccnc3)cc2C1=O)c1ccc(C(F)(F)F)cc1` [Compound P21, 5-(2-oxo-2-(4-(trifluoromethyl)phenyl)ethyl)-2-(pyridin-3-yl)-2,5,6,7-tetrahydro-4H-pyrazolo[4,3-c]pyridin-4-one] yielded a mortality at 200 ppm [2, 3] of 80 to 100%.
`CC(C)N1CCc2nn(-c3cccnc3)cc2C1=O` [Compound F6, 5-Isopropyl-2-(3-pyridyl)-6,7-dihydropyrazolo[4,3-c]pyridin-4-one] was tested, and the mortality at 200 ppm [1, 3] was 80 to 100% and the mortality at 200 ppm [2, 3] was 80 to 100%.
Compound `COc1cccc(N2CCc3nn(-c4cccnc4)cc3C2=O)n1` [Compound F18, 5-(6-Methoxy-2-pyridyl)-2-(3-pyridyl)-6,7-dihydropyrazolo[4,3-c]pyridin-4-one] has a mortality at 200 ppm [1, 3] of 0 to 80% and a mortality at 200 ppm [2, 3] of 0 to 80%.
`O=C1c2cn(-c3cccnc3)nc2CCN1c1cccc(OC(F)(F)F)c1` [Compound F22, 2-(3-Pyridyl)-5-[3-(trifluoromethoxy)phenyl]-6,7-dihydropyrazolo[4,3-c]pyridin-4-one] showed a mortality at 200 ppm [1, 3] of 80 to 100% and a mortality at 200 ppm [2, 3] of 80 to 100%.
With `CON=C(CN1CCc2nn(-c3cccnc3)cc2C1=O)c1cccc(C(F)(F)F)c1` (single isomer, unassigned) [Compound P34, 5-(2-(methoxyimino)-2-(3-(trifluoromethyl)phenyl)ethyl)-2-(pyridin-3-yl)-2,5,6,7-tetrahydro-4H-pyrazolo[4,3-c]pyridin-4-one] the mortality at 200 ppm [2, 3] was 80 to 100%.
In the case of `CON=C(CN1CCc2nn(-c3cccnc3)cc2C1=O)c1ccc(C(F)(F)F)cc1` (single isomer, unassigned) [Compound P35, 5-(2-(methoxyimino)-2-(4-(trifluoromethyl)phenyl)ethyl)-2-(pyridin-3-yl)-2,5,6,7-tetrahydro-4H-pyrazolo[4,3-c]pyridin-4-one], the mortality at 200 ppm [2, 3] is reported as 80 to 100%.
Compound `CON=CCN1CCc2nn(-c3cccnc3)cc2C1=O` (single isomer, unassigned) [Compound P26, 2-(4-oxo-2-(pyridin-3-yl)-2,4,6,7-tetrahydro-5H-pyrazolo[4,3-c]pyridin-5-yl)acetaldehyde O-methyl oxime] has a mortality at 200 ppm [2, 3] of 80 to 100%.
With `O=C(CN1CCc2nn(-c3cccnc3)cc2C1=O)c1cccc(C(F)(F)F)c1` [Compound P20, 5-(2-oxo-2-(3-(trifluoromethyl)phenyl)ethyl)-2-(pyridin-3-yl)-2,5,6,7-tetrahydro-4H-pyrazolo[4,3-c]pyridin-4-one] the mortality at 200 ppm [2, 3] was 80 to 100%.
